Data as given in patent US8507472B2 (priority 2010, dated 2013).

Tests used:
Leptosphaeria nodorum = Leptosphaeria nodorum test (wheat)/protective; format: in vivo; conditions: in vivo
Protocol: (§1) Solvent: 49 parts by weight of N,N-dimethylformamide
(§2) Emulsifier: 1 part by weight of alkylaryl polyglycol ether
(§3) To produce a suitable preparation of active compounds, 1 part by weight of active compound is mixed with the stated amounts of solvent and emulsifier, and the concentrate is diluted with water to the desired concentration.
(§4) To test for protective activity, young wheat plants are sprayed with the active compound preparation at the stated application rate. 1 day after the treatment, the plants are inoculated with an aqueous spore suspension of Leptosphaeria nodorum and then remain at 100% rel. atmospheric humidity and 22° C. for 48 h. The plants are then placed in a greenhouse at 90% rel. atmospheric humidity and a temperature of 22° C.
(§5) Evaluation is carried out 7-9 days after the inoculation. 0% means an efficacy which corresponds to that of the control, whereas an efficacy of 100% means that no infection is observed.

Pyrenophora teres = Pyrenophora teres test (barley)/protective; format: in vivo; conditions: in vivo
Protocol: as §1, §2, §3
as §4, with “young barley” for “young wheat”, “of Pyrenophora teres” for “of Leptosphaeria nodorum”, “at 80%” for “at 90%”, “of 20°” for “of 22°”
as §5

Sphaerotheca fuliginea = test: Sphaerotheca test (cucumber)/protective; format: in vivo; conditions: in vivo
Protocol: as §1, §2, §3
To test for protective activity, young cucumber plants are sprayed with the active compound preparation at the stated application rate. 1 day after the treatment, the plants are inoculated with a spore suspension of Sphaerotheca fuliginea. The plants are then placed in a greenhouse at 70% rel. atmospheric humidity and a temperature of 23° C.
(§6) Evaluation is carried out 7 days after the inoculation. 0% means an efficacy which corresponds to that of the control, whereas an efficacy of 100% means that no infection is observed.

Alternaria solani = test: Alternaria test (tomato)/protective; format: in vivo; conditions: in vivo
Protocol: as §1, §2
To produce a suitable preparation of active compound, 1 part by weight of active compound is mixed with the stated amounts of solvent and emulsifier, and the concentrate is diluted with water to the desired concentration.
To test for protective activity, young tomato plants are sprayed with the active compound preparation at the stated application rate. 1 day after the treatment, the plants are inoculated with a spore suspension of Alternaria solani and then remain at 100% rel. humidity and 22° C. for 24 h. The plants then remain at 96% rel. atmospheric humidity and a temperature of 20° C.
as §6

Phytophthora infestans = format: in vivo; conditions: in vivo
[1] = log P determination by HPLC retention times (alkan-2-one calibration); conditions: log P(HCOOH), HCOOH; preparation examples in the text

| SMILES | efficacy in % (Leptosphaeria nodorum) [%] | efficacy in % (Pyrenophora teres) [%] | efficacy in % (Sphaerotheca fuliginea) [%] | efficacy in % (Alternaria solani) [%] | efficacy in % (Phytophthora infestans) [%] | chromatographic logP [1] |
| --- | --- | --- | --- | --- | --- | --- |
| CC(C)CC(=O)Nc1cc(-c2c(-c3ccc(F)cc3)nn3c2CCOC3)ccn1 [Example 112] | 90 | 95 | 95 | 90 | – | – |
| CC1CC1C(=O)Nc1cc(-c2c(-c3ccc(F)cc3)nn3c2CCOC3(C)C)ccn1 (centres unmarked) [Example 101] | 70 | 95 | 98 | 90 | – | – |
| O=C(Nc1cc(-c2c(-c3ccc(F)cc3)nn3c2COCC3)ccn1)C1CC1 [Example 93] | 80 | 100 | 98 | 95 | 90 | – |
| CCC(=O)Nc1cc(-c2c(-c3ccc(F)cc3)nn3c2COCC3)ccn1 [Example 104] | – | 95 | 93 | 80 | – | – |
| CC(C)C(=O)Nc1cc(-c2c(-c3ccc(F)cc3)nn3c2COCC3)ccn1 [Example 92] | 90 | 95 | 98 | 90 | 80 | – |
| CC1CC1C(=O)Nc1cc(-c2c(-c3ccc(F)cc3)nn3c2CCOC3)ccn1 (centres unmarked) [Example 108] | 70 | 95 | 95 | 80 | – | – |
| CC(C)C(=O)Nc1cc(-c2c(-c3ccc(F)cc3)nn3c2CCCCC3)ccn1 [Example 97] | 80 | 100 | 100 | 70 | – | – |
| CC1(C)OCCc2c(-c3ccnc(NC(=O)C4CCC4)c3)c(-c3ccc(F)cc3)nn21 [Example 102] | 90 | 95 | 100 | 95 | – | – |
| CCC(=O)Nc1cc(-c2c(-c3cccs3)nn3c2CCCC3)ccn1 [Example 75] | – | 100 | 95 | 95 | 80 | – |
| CC(C)Nc1cc(-c2c(-c3ccc(Cl)cc3)nn3c2CCC3)ccn1 [Example 48] | – | – | – | – | 70 | – |
| CCC(=O)Nc1cc(-c2c(-c3ccc(F)cc3)nn3c2CCOC3)ccn1 [Example 95] | 90 | 100 | 95 | 80 | – | – |
| CN(C)C=Nc1cc(-c2c(-c3ccc(F)cc3)nn3c2CCCC3)ccn1 [Example 39] | – | 95 | – | 80 | 80 | – |
| CC(=O)Nc1cc(-c2c(-c3ccc(F)cc3)nn3c2CCCCC3)ccn1 [Example 99] | 95 | 95 | 98 | 80 | – | – |
| CC(C)CNc1cc(-c2c(-c3ccc(F)cc3)nn3c2CCC3)ccn1 [Example 71] | – | 80 | – | – | 80 | – |
| FC(F)(F)c1ccc(-c2nn3c(c2-c2ccncc2)CCC3)cc1 [Example 17] | – | – | – | – | 80 | – |
| Nc1cc(-c2c(-c3ccc(F)cc3)nn3c2CCC3)ccn1 [Example 69] | – | – | – | – | 70 | – |
| CC(C)C(=O)Nc1cc(-c2c(-c3cccs3)nn3c2CCCC3)ccn1 [Example 88] | – | 90 | 95 | 90 | 80 | – |
| CC1(C)OCCc2c(-c3ccnc(NC(=O)C4CC4)c3)c(-c3ccc(F)cc3)nn21 [Example 84] | 88 | 94 | 98 | – | – | – |
| CC(C)C(=O)Nc1cc(-c2c(-c3ccc(F)cc3)nn3c2CCOC3(C)C)ccn1 [Example 83] | 75 | 94 | 98 | 89 | 70 | – |
| CC(=O)Nc1cc(-c2c(-c3ccc(F)cc3)nn3c2CCOC3(C)C)ccn1 [Example 90] | 89 | 95 | 95 | 95 | 78 | – |
| O=C(Nc1cc(-c2c(-c3ccc(F)cc3)nn3c2CCOC3)ccn1)C1CC1 [Example 107] | 90 | 95 | 100 | – | – | – |
| CCC(=O)Nc1cc(-c2c(-c3ccc(F)cc3)nn3c2CCCCC3)ccn1 [Example 96] | 90 | 100 | 95 | 90 | 70 | – |

| SMILES | efficacy in % (Leptosphaeria nodorum) [%] | efficacy in % (Pyrenophora teres) [%] | efficacy in % (Sphaerotheca fuliginea) [%] | efficacy in % (Alternaria solani) [%] | efficacy in % (Phytophthora infestans) [%] | chromatographic logP [1] |
| --- | --- | --- | --- | --- | --- | --- |
| O=C(Nc1cc(-c2c(-c3ccc(F)cc3)nn3c2CCOC3)ccn1)C1CCC1 [Example 109] | – | 95 | 93 | 90 | – | – |
| Fc1ccccc1-c1nn2c(c1Br)CCC2 [VIII-22, 3-Bromo-2-(2-fluorophenyl)-5,6-dihydro-4H-pyrrolo[1,2-b]pyrazole] | – | – | – | – | – | 2.81 |
| CCC(=O)Nc1cc(-c2c(-c3ccccc3)nn3c2COCC3)ccn1 [Example 100] | 70 | 100 | 95 | 80 | – | – |
| CC(C)(C)OC1Cc2c([O-])on[n+]2C1 (centres unmarked) [III-4, 5-tert-Butoxy-5,6-dihydro-4H-pyrrolo[1,2-c][1,2,3]oxadiazol-7-ium 3-olate] | – | – | – | – | – | 1.34 |
| O=C(C#CCCOCc1ccccc1)c1ccc(F)cc1 [XX-1, 5-(Benzyloxy)-1-(4-fluorophenyl)pent-2-yn-1-one] | – | – | – | – | – | 3.89 |
| CCOC(=O)c1c(-c2ccccc2F)nn2c1CCC2 [XXX-3, Ethyl 2-(2-fluorophenyl)-5,6-dihydro-4H-pyrrolo[1,2-b]pyrazole-3-carboxylate] | – | – | – | – | – | 2.49 |
| Fc1ccc(-c2nn3c(c2I)CCC3)cc1 [VIII-6, 2-(4-Fluorophenyl)-3-iodo-5,6-dihydro-4H-pyrrolo[1,2-b]pyrazole] | – | – | – | – | – | 3.3 |
| CC1CCN(N=C(c2ccccc2)c2ccccc2)C1=O (centres unmarked) [XXV-3, 1-[(Diphenylmethylene)amino]-3-methylpyrrolidin-2-one] | – | – | – | – | – | 2.62 |
| Cc1ccc(-c2nn3c(c2I)CCC3)cc1 [VIII-7, 2-[4-Methylphenyl]-3-iodo-5,6-dihydro-4H-pyrrolo[1,2-b]pyrazole] | – | – | – | – | – | 3.54 |
| O=C(Cc1ccccc1)Nc1cc(-c2c(-c3ccc(F)cc3)nn3c2CCCCC3)ccn1 [Example 98] | – | 95 | 90 | 90 | – | – |
| Ic1c(-c2ccccc2)nn2c1CCCC2 [VIII-12, 2-(Phenyl)-3-iodo-4,5,6,7-tetrahydropyrazolo[1,5-a]pyridine] | – | – | – | – | – | 3.55 |
| Fc1ccc(-c2cc3n(n2)CCCC3)cc1 [VII-1, 2-(4-Fluorophenyl)-4,5,6,7-tetrahydropyrazolo[1,5-a]pyridine] | – | – | – | – | – | 2.76 |
| CC1CCc2c(I)c(-c3ccc(F)cc3)nn21 (centres unmarked) [VIII-19, 2-(4-Fluorophenyl)-3-iodo-6-methyl-5,6-dihydro-4H-pyrrolo[1,2-b]pyrazole] | – | – | – | – | – | 3.82 |
| Fc1ccc(-c2nn3c(c2Br)COCC3)cc1 [VIII-17, 3-Bromo-2-(4-fluorophenyl)-6,7-dihydro-4H-pyrazolo[5,1-c][1,4]oxazine] | – | – | – | – | – | 2.9 |
| CC1(C)OCCc2c(I)c(-c3ccc(F)cc3)nn21 [VIII-16, 2-(4-Fluorophenyl)-3-iodo-7,7-dimethyl-4,5-dihydropyrazolo[1,5-c][1,3]oxazine] | – | – | – | – | – | 4.28 |
| FC(F)(F)c1ccc(-c2nn3c(c2I)CCC3)cc1 [VIII-10, 2-[4-(Trifluoromethyl)phenyl]-3-iodo-5,6-dihydro-4H-pyrrolo[1,2-b]pyrazole] | – | – | – | – | – | 4.13 |
| COCC(=O)Nc1cc(-c2c(-c3ccc(F)cc3)nn3c2CCOC3)ccn1 [Example 94] | – | 95 | 93 | 90 | – | – |
| COc1ccc(-c2nn3c(c2I)CCC3)cc1 [VIII-9, 2-[4-(Methoxy)phenyl]-3-iodo-5,6-dihydro-4H-pyrrolo[1,2-b]pyrazole] | – | – | – | – | – | 3.01 |
| CC(=O)Nc1cc(-c2c(-c3ccc(F)cc3)nn3c2CCOC3)ccn1 [Example 106] | – | 95 | 75 | 80 | – | – |
| FC(F)(F)c1cccc(-c2cc3n(n2)CCC3)c1 [VII-6, 2-[3-(Trifluoromethyl)phenyl]-5,6-dihydro-4H-pyrrolo[1,2-b]pyrazole] | – | – | – | – | – | 3.25 |
| Cc1ccc(-c2cc3n(n2)CCC3)cc1 [VII-8, 2-[4-Methylphenyl]-5,6-dihydro-4H-pyrrolo[1,2-b]pyrazole] | – | – | – | – | – | 2.64 |
